Reference: patent US20250352612A1, “PHARMACEUTICAL AGENT TO PREVENT THE ADVERSE EFFECTS OF ROTAVIRUS NSP4 PROTEIN” (priority 2022, published 2025)

Tests used:
Format in all cases: cell-based
[1] = system: intestinal cell line; assay: Intracellular calcium amount after NSP4 and PlnA administration in intestinal cell line; settings: co-administration of NSP4 and PlnA-containing agent
Source text: In an exemplary embodiment of the pharmaceutical agent developed with the present invention, a pharmaceutical agent containing the Lactobacillus plantarum bacteriocin Plantaricin A (PlnA) is used to reduce the intracellular calcium content of the rotavirus NSP4 protein in the intestinal cell line. Thus, the amount of intracellular calcium increased by the NSP4 protein is reduced and, therefore, cell death and ER disruption caused by rotavirus through apoptosis is prevented by this strategy.

[2] = system: IL-10; assay: IL-10 protein levels after NSP4 and PlnA administration; settings: NSP4 and PlnA-containing agent; for increase of IL-10 protein levels compared to the control group without any application: Graph 3
[3] = system: IL-10; assay: IL-10 mRNA levels (gene expression) after NSP4 and PlnA administration; settings: NSP4 and PlnA containing agent together, Graph 5

Plantaricin A [PlnA-containing pharmaceutical agent]
decrease of amount of intracellular calcium compared to the NSP4-treated first group ([1]; 6th hour, Graph 1): 3.75 fold
decrease of amount of intracellular calcium compared to the control group ([1]; 6th hour, Graph 1): 1.64 fold
amount of intracellular calcium compared to the control group ([1]; 12 hours, Graph 2): the same amount of calcium was observed in the control group
decrease of amount of intracellular calcium compared to the first group administered NSP4 ([1]; 12 hours, Graph 2): 2.67 times
increase of IL-10 protein levels compared to the control group without any application ([2]; 3rd hour): 2 fold
increase of IL-10 protein levels compared to the control group without any application ([2]; 6th hour): 1.43 fold
IL-10 protein levels compared to the control group ([2]; 12 hours, Graph 4): no significant difference
increase of IL-10 protein levels compared to the control group ([2]; 24 hours, Graph 4): 1.13 fold
increase of IL-10 mRNA level compared to the control group ([3]; 12th hour): 0.68 fold
NSP4-induced suppression of IL-10 gene expression [3]: this suppression was reduced
